16 compounds from patent publication US12077483B2, “Modified amine lipids” (Intellia Therapeutics, Inc., priority 2018, dated 2024) can be followed below.

For orientation: pKa means the pH at which an ionisable group is half protonated.

Data set [1] is described as follows: pKa of amine lipid by TNS fluorescence. It is filed as physicochemical. Particulars: probe TNS (6-(p-toluidino)-2-naphthalenesulfonic acid sodium salt), unformulated amine lipid in ethanol, sodium phosphate buffers -9.0. The gist of the method: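 Unformulated amine lipid, about 100 μM final, in 0.1 M sodium phosphate buffers spanning pH 4.5–9.0 with TNS. Fluorescence read at ex 321/em 448 nm; normalized data fitted sigmoidally to give pKa.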

The test system of another data set is mouse B2M gene. Description: In vivo editing in mouse liver, LNP with Cas9 mRNA and sgRNA G650, NGS. Particulars: Table 3; guide G650; CD-1 female mice, 0.1 mpk i.v., liver at 6 or 7 days; Exp. 2-7. As for the experimental part:
LNPs were prepared using various amine lipids in a 4-component lipid system consisting of an ionizable lipid (e.g. an amine lipid), DSPC, cholesterol and PEG-2k-DMG. In assays for percent liver editing in mice, Cas9 mRNA and chemically modified sgRNA targeting a mouse sequence were formulated in LNPs, at either a 1:1 w/w ratio or a 1:2 w/w ratio.
The lipid components were dissolved in 100% ethanol with the lipid component molar ratios described below. The chemically modified sgRNA and Cas9 mRNA were combined and dissolved in 25 mM citrate, 100 mM NaCl, pH 5.0, resulting in a concentration of total RNA cargo of approximately 0.45 mg/mL. The LNPs were formulated with an N/P ratio of about 6, with the ratio of chemically modified sgRNA: Cas9 mRNA at either a 1:1 or 1:2 w/w ratio as described below.
CD-1 female mice, ranging from 6-10 weeks of age were used in each study. Animals were weighed and grouped according to body weight for preparing dosing solutions based on group average weight. LNPs were dosed via the lateral tail vein in a volume of 0.2 mL per animal (approximately 10 mL per kilogram body weight). The animals were periodically observed for adverse effects for at least 24 hours post dose.
For studies measuring in vivo editing in liver, CD-1 female mice were dosed at 0.1 mpk unless otherwise noted. Animals were euthanized at 6 or 7 days by exsanguinationvia cardiac puncture under isoflourane anesthesia. Liver tissue was collected from each animal for DNA extraction and analysis. Blood was collected into serum separator tubes or into tubes containing buffered sodium citrate for plasma as described herein. Cohorts of mice were measured for editing by Next-Generation Sequencing (NGS).
In brief, to quantitatively determine the efficiency of editing at the target location in the genome, genomic DNA was isolated and deep sequencing was utilized to identify the presence of insertions and deletions introduced by gene editing.
PCR primers were designed around the target site (e.g., B2M), and the genomic area of interest was amplified. Additional PCR was performed according to the manufacturer's protocols (Illumina) to add the necessary chemistry for sequencing. The amplicons were sequenced on an Illumina MiSeq instrument. The reads were aligned to the relevant reference genome (e.g., GRCm38) after eliminating those having low quality scores. The resulting files containing the reads were mapped to the reference genome (BAM files), where reads that overlapped the target region of interest were selected and the number of wild type reads versus the number of reads which contain an insertion, substitution, or deletion was calculated.
The editing percentage (e.g., the “editing efficiency” or “percent editing”) is defined as the total number of sequence reads with insertions or deletions over the total number of sequence reads, including wild type.
We assessed in vivo editing efficiency for materials delivered with formulations including various amine lipid compounds. Editing was measured using either G282 (SEQ ID No: 1) which targets the mouse TTR gene or G650 (SEQ ID No. 2) which targets the mouse B2M gene. Lipids described above were assessed for efficacy through in vivo editing experiments. LNPs were formulated at a 1:1 w/w ratio of sgRNA to Cas9 mRNA, and at an N/P ratio of about 6. Molar concentrations of lipids in the lipid component of the LNPs are expressed as mol % amine lipid/DSPC/cholesterol/PEG-2k-DMG, e.g. 50/10/38.5/1.5. The final LNPs were characterized to determine the encapsulation efficiency, polydispersity index, and average particle size according to the analytical methods provided above. Analysis of average particle size, polydispersity (PDI), total RNA content and encapsulation efficiency of RNA are shown in Table 2.

For `CCCCC/C=C\C/C=C\CCCCCCCC(=O)OCC(COC(=O)CCCCCCC/C=C\C/C=C\CCCCC)OC(=O)CCC(CCCCCCCCCCCC)OC(=O)OCCC1CCCN1C` (centres unmarked) [Compound 16, 2-((4-(((2-(1-methylpyrrolidin-2-yl)ethoxy)carbonyl)oxy)hexadecanoyl)oxy) propane-1,3-diyl (9Z,9′Z,12Z,12′Z)-bis(octadeca-9,12-dienoate)], the pKa in data set [1] came out at 5.72. Moreover, the “Editing Mean % Indel” value in the data set on mouse B2M gene amounted to 10.1%.
For `CCCCCC/C=C\COC(=O)CCCCCCCC(=O)OCC(COC(=O)CCCCCCCC(=O)OC/C=C\CCCCCC)OC(=O)CCC(CCCCCCCCCCCC)OC(=O)OCCCN(C)C` (centres unmarked) [Compound 22, O′1,O1-(2-((4-(((3-(dimethylamino)propoxy)carbonyl)oxy)hexadecanoyl)oxy)propane-1,3-diyl) 9,9′-di((Z)-non-2-en-1-yl) di(nonanedioate)], in that order: 6.06 and 6.7%.
For `CCCCC/C=C\C/C=C\CCCCCCCC(=O)OCC(COC(=O)CCCCCCC/C=C\C/C=C\CCCCC)OC(=O)CCC(CCCCCCCCCCCCCCCC)OC(=O)OCCCN1CCCC1` (centres unmarked) [Compound 19, 2-((4-(((3-(pyrrolidin-1-yl)propoxy)carbonyl)oxy)icosanoyl)oxy)propane-1,3-diyl (9Z,9′Z,12Z,12′Z)-bis(octadeca-9,12-dienoate)], in that order: 5.99 and 13.0%.
The corresponding values for `CCCCC/C=C\C/C=C\CCCCCCCC(=O)OCC(COC(=O)CCCCCCC/C=C\C/C=C\CCCCC)OC(=O)CCC(CCCCCCCCCCCC)OC(=O)NCCN(CC)CC` (centres unmarked) [Compound 15, 2-((4-(((2-(diethylamino)ethyl)carbamoyl)oxy)hexadecanoyl)oxy)propane-1,3-diyl (9Z,9′Z,12Z,12′Z)-bis(octadeca-9,12-dienoate)] are 5.9 and 18.0%.
Consider `CCCCCC/C=C\COC(=O)CCCCCCCC(=O)OCC(COC(=O)CCCCCCCC(=O)OC/C=C\CCCCCC)OC(=O)CCC(CCCCCCCCCCCC)OC(=O)NCC1CCCN1C` (centres unmarked) [Compound 24, O′1,O1-(2-((4-((((1-methylpyrrolidin-2-yl)methyl)carbamoyl)oxy)hexadecanoyl)oxy)propane-1,3-diyl)9,9′-di((Z)-non-2-en-1-yl) di(nonanedioate)], for which the pKa in data set [1] turned out to be 6.1. Also, the “Editing Mean % Indel” value with mouse B2M gene stood at 6.8%.
The corresponding values for `CCCCC/C=C\C/C=C\CCCCCCCC(=O)OCC(COC(=O)CCCCCCC/C=C\C/C=C\CCCCC)OC(=O)CCC(CCCCCCCCCCCCCCCC)OC(=O)NCC1CCCN1C` (centres unmarked) [Compound 21, 2-((4-((((1-methylpyrrolidin-2-yl)methyl)carbamoyl)oxy)icosanoyl)oxy)propane-1,3-diyl (9Z,9′Z,12Z,12′Z)-bis(octadeca-9,12-dienoate)] are 6.12 and 12.1%.
With `CCCCC/C=C\C/C=C\CCCCCCCC(=O)OCC(COC(=O)CCCCCCC/C=C\C/C=C\CCCCC)OC(=O)CCCC(CCCCCCCCCCCC)OC(=O)NCC1CCCN1C` (centres unmarked) [Compound 29, 2-((5-((((1-methylpyrrolidin-2-yl)methyl)carbamoyl)oxy)heptadecanoyl)oxy) propane-1,3-diyl (9Z,9′Z,12Z,12′Z)-bis(octadeca-9,12-dienoate)], the pKa in data set [1] turned out to be 6.05. Further, the “Editing Mean % Indel” value in the data set with mouse B2M gene is reported as 3.6%.
The corresponding values for `CCCCC/C=C\C/C=C\CCCCCCCC(=O)OCC(COC(=O)CCCCCCC/C=C\C/C=C\CCCCC)OC(=O)CCC(CCCCCCCCCCCCCCCC)OC(=O)NCCN(C)CC` (centres unmarked) [Compound 20, 2-((4-(((2-(ethyl(methyl)amino)ethyl)carbamoyl)oxy)icosanoyl)oxy)propane-1,3-diyl (9Z,9′Z,12Z,12′Z)-bis(octadeca-9,12-dienoate)] are 6.17 and 15.4%.
`CCCCC/C=C\C/C=C\CCCCCCCC(=O)OCC(COC(=O)CCCCCCC/C=C\C/C=C\CCCCC)OC(=O)CCC(CCCCCCCC)OC(=O)OCCCN(C)CC` (centres unmarked) [Compound 33, 2-((4-(((3-(ethyl(methyl)amino)propoxy)carbonyl)oxy)dodecanoyl)oxy)propane-1,3-diyl (9Z,9′Z, 12Z, 12′Z)-bis(octadeca-9,12-dienoate)]: in data set [1], the pKa was 5.95. For the same compound, the “Editing Mean % Indel” value in the data set with mouse B2M gene stood at 20.0%.
The corresponding values for `CCCCC/C=C\C/C=C\CCCCCCCC(=O)OCC(COC(=O)CCCCCCC/C=C\C/C=C\CCCCC)OC(=O)CCCC(CCCCCCCCCCCC)OC(=O)NCCN(C)CC` (centres unmarked) [Compound 28, 2-((5-(((2-(ethyl(methyl)amino)ethyl)carbamoyl)oxy)heptadecanoyl)oxy) propane-1,3-diyl (9Z,9′Z,12Z,12′Z)-bis(octadeca-9,12-dienoate)] are 6.06 and 17.8%.
For `CCCCCC/C=C\COC(=O)CCCCCCCC(=O)OCC(COC(=O)CCCCCCCC(=O)OC/C=C\CCCCCC)OC(=O)CCC(CCCCCCCCCCCC)OC(=O)NCCN(C)CC` (centres unmarked) [Compound 23, O′1,O1-(2-((4-(((2-(ethyl(methyl)amino)ethyl)carbamoyl)oxy)hexadecanoyl)oxy)propane-1,3-diyl) 9,9′-di((Z)-non-2-en-1-yl) di(nonanedioate)], in that order: 6.19 and 7.3%.
For `CCCCC/C=C\C/C=C\CCCCCCCC(=O)OCC(COC(=O)CCCCCCC/C=C\C/C=C\CCCCC)OC(=O)CCC(CCCCCCCC)OC(=O)OCCCN(CC)CC` (centres unmarked) [Compound 32, 2-((4-(((3-(diethylamino)propoxy)carbonyl)oxy)dodecanoyl)oxy)propane-1,3-diyl (9Z,9′Z,12Z,12′Z)-bis(octadeca-9,12-dienoate)], in that order: 5.64 and 11.6%.
For the compound `CCCCC/C=C\C/C=C\CCCCCCCC(=O)OCC(COC(=O)CCCCCCC/C=C\C/C=C\CCCCC)OC(=O)CCC(CCCCCCCCCCCC)OC(=O)CCCN(CC)CC` (centres unmarked) [Compound 11, 2-((4-((4-(diethylamino)butanoyl)oxy)hexadecanoyl)oxy)propane-1,3-diyl (9Z,9′Z,12Z,12′Z)-bis(octadeca-9,12-dienoate)], the pKa in data set [1] amounted to 5.6. Also, the “Editing Mean % Indel” value with mouse B2M gene is 9.2%.
As to `CCCCC/C=C\C/C=C\CCCCCCCC(=O)OCC(COC(=O)CCCCCCC/C=C\C/C=C\CCCCC)OC(=O)CCC(CCCCCCCCCCCC)OC(=O)OC1CCN(CC)CC1` (centres unmarked) [Compound 6, 2-((4-((((1-ethylpiperidin-4-yl)oxy)carbonyl)oxy)hexadecanoyl)oxy)propane-1,3-diyl (9Z,9′Z,12Z,12′Z)-bis(octadeca-9,12-dienoate)], in data set [1], the pKa is 5.37. The “Editing Mean % Indel” value with mouse B2M gene worked out at 0.4%.
Consider `CCCCC/C=C\C/C=C\CCCCCCCC(=O)OCC(COC(=O)CCCCCCC/C=C\C/C=C\CCCCC)OC(=O)CCC(CCCCCCCCCCCC)OC(=O)OCCCCN(CC)CC` (centres unmarked) [Compound 14, 2-((4-(((4-(diethylamino)butoxy)carbonyl)oxy)hexadecanoyl)oxy)propane-1,3-diyl (9Z,9′Z,12Z,12′Z)-bis(octadeca-9,12-dienoate)], for which the pKa in data set [1] came to 5.91. In addition, in the data set with mouse B2M gene, the “Editing Mean % Indel” value stood at 20.6%.
The corresponding values for `CCCCC/C=C\C/C=C\CCCCCCCC(=O)OCC(COC(=O)CCCCCCC/C=C\C/C=C\CCCCC)OC(=O)CCCC(CCCCCCCCCCCC)OC(=O)OCCCN(C)CC` (centres unmarked) [Compound 26, 2-((5-(((3-(ethyl(methyl)amino)propoxy)carbonyl)oxy)heptadecanoyl)oxy) propane-1,3-diyl (9Z,9′Z,12Z,12′Z)-bis(octadeca-9,12-dienoate)] are 5.82 and 5.2%.
